The values below come from patent publication US20100247659A1, “PHENYLPHTHALIMIDE ANALOGS FOR TREATING DIABETIC MACULAR EDEMA” (Charlesson, LLC, priority 2007, published 2010).

A short description of data set [1]: Drying at elevated temperature. The class given is physicochemical. As to conditions: 70° C., 89 h. The protocol: Synthesis of Compound 4 was successfully carried out via catalytic hydrogenation and via transfer hydrogenation. Catalytic hydrogenation required a longer reaction time (24 h) under 45-50 psi. This method requires specialized equipment. […] Scale-up of this reaction gave 99.2% pure material in 91% yield.
A 12 L, 3-neck round bottom flask, equipped appropriately and under nitrogen, was charged with a slurry of 10% palladium on carbon (24.5 g, 10% (w/w)) in ethanol (200 proof, 1 L). To this slurry was charged (2,6-diisopropylphenyl)-5-nitro-1H-isoindole-1,3-dione (245.0 g, 0.70 mol) followed by ethanol (200 proof, 2.92 L, 3.92 L total, 16 mL/g) and triethylamine (311.7 g, 3.08 mol, 4.40 eq). Formic acid (135.8 g, 2.95 mol, 4.22 eq) was added slowly over 25 min. The slurry was heated to reflux and the reaction progress was monitored by HPLC. At 3.5 h, the mixture was filtered through a Celite bed to remove the catalyst. The filter bed was rinsed with ethanol (200 proof, 4×175 mL). The filtrate was then clarified through Whatman filter paper to remove any particulates. Ethanol (200 proof, 2×150 mL) was used as a rinse. To the solution was added water (deionized, 3.92 L), over 45 min. The resulting slurry was stirred at ambient temperature overnight. The following day, the slurry was cooled to 0-10° C. for 2 h. […]

Data set [2] has as its system normal BN rats. Briefly: Ocular toxicity, ERG recording. Type of data set: in vivo, rat. The settings on record: 2 μg/eye intravitreal, weeks 1-4. How it is done: Electroretinogram (ERG) recording: Full-field ERGs were recorded by Espion E^2 ERG system (Diagnosys LLC) as described previously (Rohrer, Journal of Neuroscience, 1999, 19: […]) by two protocols: (A) 10 ms flashes of increasing light intensities under scotopic and photopic conditions, and (B) 2 Hz flicker ERG under photopic conditions. BN rats received an intravitreal injection of Compound 4 (2.0 μg/eye, 5 μl/eye of 0.4 mg/ml in BN rat serum) or equal amount of BN rat serum, respectively. At various intervals after injection, the peak a-wave amplitude was measured from baseline to the initial negative-going voltage, whereas peak b-wave amplitude was measured from the trough of the a-wave to the peak of the positive b-wave. Flicker amplitudes were measured from the preceding trough to the peak of the flicker response. Data was expressed as mean±SD and compared between the compound-injected eyes and control eyes by the paired Student's t-test.
To test the potential ocular toxicities of Compound 4, normal rats at age of 8 weeks received an intravitreal injection of a high dose of Compound 4, 2 μg/eye (5 μl/eye of 0.4 mg/ml in BN rat serum) or an equal amount of BN rat serum as the vehicle control. Prior to study initiation, and after weeks 1, 2, 3, and 4 following the injection, visual function was evaluated by ERG recording. […]

In data set [3] the test system is normal BN rats. Put plainly: Ocular toxicity, histological analysis of the retina. Type of data set: in vivo, rat. As to conditions: 2 μg/eye intravitreal, 4 weeks. The protocol: Histological analysis of the retina: To test the potential ocular toxicity of Compound 4, 8 week old normal BN rats received an intravitreal injection of Compound 4 (2.0 μg/eye, 5 μl/eye of 0.4 mg/ml in BN rat serum) or equal amount of BN rat serum, respectively. At various intervals after injection, the animals were sacrificed. The eyes then were removed, fixed in 4% formaldehyde, embedded in paraffin, and cut into 6-μm sections containing the whole retina. Paraffin-embedded sections were stained with hematoxylin-eosin (HE) and were examined.
Possible toxicities of CLT-033 were also examined using pathohistological examination 4 weeks after the drug administration. Retinal cross sections stained with H&E were examined under a light microscope.
Eight weeks old BN rats were received an intravitreal injection of Compound 4 (2.0 μg/eye, 5 μl/eye 0.4 mg/ml in BN rat serum) or equal amount of BN rat serum respectively (n=6). ERG was performed prior to study initiation and 1, 2, 3 and 4 weeks after the injection. Data shown no dramatic change in the a-wave and b-wave amplitudes in Compound 4-injected rats compared to vehicle-injected rats (FIG. 18A-18C). The animals were sacrificed 4 weeks after injection. The eye sections were observed under microscope with HE staining.

For a further data set, the system named is HUVECs. Briefly: Tube formation assay on matrigel. The class given is cell-based, human. The settings on record: 5 μM, 16 h. The protocol: Eight-well slide chambers were coated with matrigel and at 37° C. and 5% CO2 for 30 min. HUVECs were then seeded at 30,000 cells/well in EGM-II containing either vehicle (0.5% DMSO), 5 μM of Compound 4 or thalidomide and incubated at 37° C. and 5% CO2 for 16 h. After incubation, slides were washed in PBS, fixed in 100% methanol for 10 s, and stained with DiffQuick solution II for 2 min. To analyze tube formation, each well was digitally photographed using a ×2.5 objective.
Representative images were captured after incubation of vehicle, thalidomide and Compound 4 for 16 h.

On to `CC(C)c1cccc(C(C)C)c1N1C(=O)c2ccc(N)cc2C1=O` [Compound 4], for which the stability on drying entry in data set [1] is recorded as “does not cause decomposition”. Moreover, the “ERG a-wave and b-wave amplitudes” value in the data set on normal BN rats [2] is “no detectable change in the a-wave and b-wave amplitudes”. Moreover, in the data set on normal BN rats [3], the “retinal morphology, H&E sections” value is recorded as “No apparent morphological change or immunoresponse”.

In the case of `O=C1CCC(N2C(=O)c3ccccc3C2=O)C(=O)N1` (stereo not shown) [thalidomide], in the data set with HUVECs, the “inhibition of tube formation” value is reported as “did not show any inhibitory activity”.
